# Tested on: angiotensin II (AII) vasopressor response
# Experiment: AII challenge: antagonism of the vasopressor response of angiotensin II in conscious Okamoto-Aoki SHR
# Format: in vivo, rat (Okamoto-Aoki SHR)
# Conditions: for inhibition in vivo at 1 mg/kg / inhibition in vivo at 2 mg/kg / inhibition in vivo at 3 mg/kg / inhibition in vivo at 5 mg/kg / inhibition in vivo at 30 mg/kg: Rattus norvegicus; for inhibition in vivo at 1 mg/kg / inhibition in vivo at 2 mg/kg / inhibition in vivo at 3 mg/kg / inhibition in vivo at 30 mg/kg: iv; for inhibition in vivo at 5 mg/kg: po
# Description: Conscious Male Okamoto-Aoki SHR, 16-20 weeks old, weighing approximately 330 g are purchased from Charles River Labs (Wilmington, Mass.). Conscious rats are restrained in a supine position with elastic tape. The area at the base of the tail is locally anesthetized by subcutaneous infiltration with 2% procaine. The ventral caudal artery and vein are isolated, and a cannula made of polyethylene (PE) 10-20 tubing (fused together by heat) is passed into the lower abdominal aorta and vena cava, respectively. The cannula is secured, heparinized (1,000 I.U./ml), sealed and the wound is closed. The animals are placed in plastic restraining cages in an upright position. The cannula is attached to a Statham P23Db pressure transducer, and pulsatile blood pressure is recorded to 10-15 minutes with a Gould Brush recorder.
# Angiotensin II (human sequence, Sigma Chem. Co., St. Louis, Mo.) of 0.05 and 0.1 ug/kg i.v. is injected into all rats (predosing response). Then a test compound, vehicle or a known angiotensin II antagonist is administered i.v., i.p. or orally to each set of rats. […] The vasopressor response of angiotensin II is measured for the increase in systolic blood pressure in mmHg. The percentage of antagonism or blockade of the vasopressor response of angiotensin II by a compound is calculated using the vasopressor response (increase in systolic blood pressure) of angiotensin II of each rat predosing the compound as 100%.
compound,measurement,setting,value
"CCCCc1nc2ccc(C(C)(C)OC)cc2c(=O)n1Cc1ccc(-c2ccccc2-c2nnn[nH]2)cc1 [Example 57, 2-Butyl-6-(1-methoxy-1-methylethyl)-3-[[2'-(1H-tetrazol-5-yl)[1,1'-biphenyl]-4-yl]methyl]-4(3H)-quinazolinone]",Response change (systolic BP increase to AII),"1 mg/kg iv, AII .025 ug/kg, 15 min",15 mmHg
same,Response change (systolic BP increase to AII),"1 mg/kg iv, AII .025 ug/kg, 30 min",15 mmHg
same,Response change (systolic BP increase to AII),"1 mg/kg iv, AII .025 ug/kg, 60 min",5 mmHg
same,Response change (systolic BP increase to AII),"1 mg/kg iv, AII .05 ug/kg, 15 min",5 mmHg
same,Response change (systolic BP increase to AII),"1 mg/kg iv, AII .05 ug/kg, 30 min",10 mmHg
same,Response change (systolic BP increase to AII),"1 mg/kg iv, AII .05 ug/kg, 60 min",15 mmHg
same,Response change (systolic BP increase to AII),"1 mg/kg iv, AII .1 ug/kg, 15 min",25 mmHg
same,Response change (systolic BP increase to AII),"1 mg/kg iv, AII .1 ug/kg, 30 min",35 mmHg
same,Response change (systolic BP increase to AII),"1 mg/kg iv, AII .1 ug/kg, 60 min",35 mmHg
same,Response change (systolic BP increase to AII),"2 mg/kg iv, AII .025 ug/kg, 30 min",0 mmHg
same,Response change (systolic BP increase to AII),"2 mg/kg iv, AII .025 ug/kg, 120 min",60 mmHg
same,Response change (systolic BP increase to AII),"2 mg/kg iv, AII .025 ug/kg, 150 min",0 mmHg
same,Response change (systolic BP increase to AII),"2 mg/kg iv, AII .05 ug/kg, 30 min",0 mmHg
same,Response change (systolic BP increase to AII),"2 mg/kg iv, AII .05 ug/kg, 120 min",30 mmHg
same,Response change (systolic BP increase to AII),"2 mg/kg iv, AII .05 ug/kg, 150 min",0 mmHg
same,Response change (systolic BP increase to AII),"2 mg/kg iv, AII .1 ug/kg, 30 min",0 mmHg
same,Response change (systolic BP increase to AII),"2 mg/kg iv, AII .1 ug/kg, 120 min",20 mmHg
same,Response change (systolic BP increase to AII),"3 mg/kg iv, AII .025 ug/kg, 150 min",15 mmHg
same,Response change (systolic BP increase to AII),"3 mg/kg iv, AII .05 ug/kg, 150 min",15 mmHg
same,Response change (systolic BP increase to AII),"3 mg/kg iv, AII .1 ug/kg, 150 min",25 mmHg
same,Response change (systolic BP increase to AII),"5 mg/kg oral, AII .025 ug/kg, 240 min",0 mmHg
same,inhibition in vivo at 1 mg/kg,"0.25 h, 1 mg/kg iv, AII .025 ug/kg, 15 min",50%
same,inhibition in vivo at 1 mg/kg,"0.25 h, 1 mg/kg iv, AII .05 ug/kg, 15 min",89%
same,inhibition in vivo at 1 mg/kg,"0.25 h, 1 mg/kg iv, AII .1 ug/kg, 15 min",48%
same,inhibition in vivo at 1 mg/kg,"0.5 h, 1 mg/kg iv, AII .025 ug/kg, 30 min",50%
same,inhibition in vivo at 1 mg/kg,"0.5 h, 1 mg/kg iv, AII .05 ug/kg, 30 min",78%
same,inhibition in vivo at 1 mg/kg,"0.5 h, 1 mg/kg iv, AII .1 ug/kg, 30 min",27%
same,inhibition in vivo at 2 mg/kg,"0.5 h, 2 mg/kg iv, AII .025 ug/kg, 30 min",100%
same,inhibition in vivo at 2 mg/kg,"0.5 h, 2 mg/kg iv, AII .05 ug/kg, 30 min",100%
same,inhibition in vivo at 2 mg/kg,"0.5 h, 2 mg/kg iv, AII .1 ug/kg, 30 min",100%
same,inhibition in vivo at 1 mg/kg,"1 h, 1 mg/kg iv, AII .025 ug/kg, 60 min",83%
same,inhibition in vivo at 1 mg/kg,"1 h, 1 mg/kg iv, AII .05 ug/kg, 60 min",67%
same,inhibition in vivo at 1 mg/kg,"1 h, 1 mg/kg iv, AII .1 ug/kg, 60 min",27%
same,inhibition in vivo at 2 mg/kg,"2 h, 2 mg/kg iv, AII .025 ug/kg, 120 min",100%
same,inhibition in vivo at 2 mg/kg,"2 h, 2 mg/kg iv, AII .05 ug/kg, 120 min",33%
same,inhibition in vivo at 2 mg/kg,"2 h, 2 mg/kg iv, AII .1 ug/kg, 120 min",58%
same,inhibition in vivo at 2 mg/kg,"2.5 h, 2 mg/kg iv, AII .025 ug/kg, 150 min",100%
same,inhibition in vivo at 2 mg/kg,"2.5 h, 2 mg/kg iv, AII .05 ug/kg, 150 min",100%
same,inhibition in vivo at 2 mg/kg,"2.5 h, 2 mg/kg iv, AII .1 ug/kg, 150 min",82%
same,inhibition in vivo at 3 mg/kg,"2.5 h, 3 mg/kg iv, AII .025 ug/kg, 150 min",50%
same,inhibition in vivo at 3 mg/kg,"2.5 h, 3 mg/kg iv, AII .05 ug/kg, 150 min",67%
same,inhibition in vivo at 3 mg/kg,"2.5 h, 3 mg/kg iv, AII .1 ug/kg, 150 min",48%
same,inhibition in vivo at 5 mg/kg,"0.5 h, 5 mg/kg oral, AII .025 ug/kg, 30 min",94%
same,inhibition in vivo at 5 mg/kg,"1 h, 5 mg/kg oral, AII .025 ug/kg, 60 min",89%
same,inhibition in vivo at 5 mg/kg,"1.5 h, 5 mg/kg oral, AII .05 ug/kg, 90 min",61%
same,inhibition in vivo at 5 mg/kg,"1.5 h, 5 mg/kg oral, AII .1 ug/kg, 90 min",36%
same,inhibition in vivo at 5 mg/kg,"2 h, 5 mg/kg oral, AII .025 ug/kg, 120 min",94%
same,inhibition in vivo at 5 mg/kg,"2 h, 5 mg/kg oral, AII .1 ug/kg, 120 min",40%
same,inhibition in vivo at 5 mg/kg,"3 h, 5 mg/kg oral, AII .025 ug/kg, 180 min",72%
same,inhibition in vivo at 5 mg/kg,"3 h, 5 mg/kg oral, AII .05 ug/kg, 180 min",68%
same,inhibition in vivo at 5 mg/kg,"3 h, 5 mg/kg oral, AII .1 ug/kg, 180 min",56%
same,inhibition in vivo at 5 mg/kg,"4 h, 5 mg/kg oral, AII .025 ug/kg, 240 min",100%
same,inhibition in vivo at 5 mg/kg,"4 h, 5 mg/kg oral, AII .05 ug/kg, 240 min",49%
same,inhibition in vivo at 5 mg/kg,"4 h, 5 mg/kg oral, AII .1 ug/kg, 240 min",48%
CCCCc1nc2ccccc2c(=O)n1Cc1ccc(-c2ccccc2-c2nnn[nH]2)cc1 [Example 50],Response change (systolic BP increase to AII),"30 mg/kg iv, AII .05 ug/kg, 90 min",30 mmHg
same,inhibition in vivo at 30 mg/kg,"0.5 h, 30 mg/kg iv, AII .05 ug/kg, 30 min",82%
same,inhibition in vivo at 30 mg/kg,"0.5 h, 30 mg/kg iv, AII .1 ug/kg, 30 min",76%
same,inhibition in vivo at 30 mg/kg,"1.5 h, 30 mg/kg iv, AII .05 ug/kg, 90 min",29%
same,inhibition in vivo at 30 mg/kg,"1.5 h, 30 mg/kg iv, AII .1 ug/kg, 90 min",52%
same,inhibition in vivo at 30 mg/kg,"2.5 h, 30 mg/kg iv, AII .05 ug/kg, 150 min",41%
same,inhibition in vivo at 30 mg/kg,"2.5 h, 30 mg/kg iv, AII .1 ug/kg, 150 min",48%

# Source: patent US5405849A, “Angiotensin II receptor blocking 2,3,6 substituted quinazolinones” (American Cyanamid Company, priority 1993, dated 1995)
